Active and inactive are the calls of the source.
Columns and labels:
[1] = target: Dual specificity protein phosphatase 3 (Homo sapiens, UniProt P51452); experiment: VHR phosphatase inhibition, dose response, selectivity assay for STEP inhibitor project, biochemical (AID 602374); assay type: functional; details: read-out: IC50_Mean
[2] = target: T1, Tyrosine-protein phosphatase non-receptor type 5 (Homo sapiens, UniProt P54829); experiment: PTPN5 enzyme inhibition – biochemical, fluorescence intensity, uHTS hits, confirmation (AID 602372); assay type: functional; details: read-out: IC50_Mean
T1 sequence (P54829 whole entry): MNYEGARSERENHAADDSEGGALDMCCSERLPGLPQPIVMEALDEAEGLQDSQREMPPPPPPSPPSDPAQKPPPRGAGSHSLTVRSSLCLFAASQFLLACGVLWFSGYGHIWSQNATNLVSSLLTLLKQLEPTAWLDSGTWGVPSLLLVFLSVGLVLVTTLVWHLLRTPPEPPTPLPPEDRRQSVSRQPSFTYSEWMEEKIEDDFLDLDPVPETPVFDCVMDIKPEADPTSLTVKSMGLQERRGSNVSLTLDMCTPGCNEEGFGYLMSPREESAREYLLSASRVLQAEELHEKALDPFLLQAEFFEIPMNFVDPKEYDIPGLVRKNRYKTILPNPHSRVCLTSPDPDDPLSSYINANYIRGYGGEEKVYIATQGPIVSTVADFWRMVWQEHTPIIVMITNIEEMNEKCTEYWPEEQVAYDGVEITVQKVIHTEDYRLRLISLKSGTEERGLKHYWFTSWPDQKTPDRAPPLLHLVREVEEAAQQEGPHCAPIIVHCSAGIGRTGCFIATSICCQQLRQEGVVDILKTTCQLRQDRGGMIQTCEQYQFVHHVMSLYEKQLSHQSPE

[3] = target: T2, Tyrosine-protein phosphatase non-receptor type 11 (Homo sapiens, UniProt Q06124); experiment: PTPN11 enzyme inhibitors – biochemical, selectivity assay for STEP inhibitor project, dose response (AID 602367); assay type: functional; details: read-out: IC50_Mean
T2 sequence (Q06124 whole entry): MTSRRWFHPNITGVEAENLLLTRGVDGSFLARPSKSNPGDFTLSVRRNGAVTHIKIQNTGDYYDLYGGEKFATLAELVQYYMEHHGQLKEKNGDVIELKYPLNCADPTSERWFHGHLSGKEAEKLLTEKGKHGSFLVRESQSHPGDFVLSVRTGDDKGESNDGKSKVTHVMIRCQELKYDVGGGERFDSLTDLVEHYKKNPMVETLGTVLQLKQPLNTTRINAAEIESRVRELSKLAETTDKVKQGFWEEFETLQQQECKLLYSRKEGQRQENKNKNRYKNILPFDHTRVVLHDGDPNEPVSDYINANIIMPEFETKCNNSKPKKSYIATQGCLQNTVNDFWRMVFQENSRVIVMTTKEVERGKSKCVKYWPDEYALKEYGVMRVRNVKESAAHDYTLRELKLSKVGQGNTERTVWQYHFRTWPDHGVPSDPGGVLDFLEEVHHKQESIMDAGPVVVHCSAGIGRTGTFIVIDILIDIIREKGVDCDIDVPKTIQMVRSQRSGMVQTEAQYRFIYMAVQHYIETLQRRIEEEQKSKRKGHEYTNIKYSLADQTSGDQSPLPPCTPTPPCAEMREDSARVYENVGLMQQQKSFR

Protein Tat = target: T3, Protein Tat (Human immunodeficiency virus type 1 group M subtype B (isolate HXB2)(HIV-1), UniProt P04608); assay type: functional;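 also: tat binding to TAR RNA read out by fluorescence polarization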
T3 sequence (P04608 whole entry): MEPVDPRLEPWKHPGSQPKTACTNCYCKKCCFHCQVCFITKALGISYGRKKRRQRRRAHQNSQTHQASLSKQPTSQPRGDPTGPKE

[4] = Luminescence Cell-Based Dose Response HTS to Identify Activators of Luciferase Translation or Activity in H4 […] Cells. [Related pubchem assays: 1829 (Project Summary), 1814 (Primary HTS)]; assay type: functional
[5] = Luminescence Cell-Based Dose Response to Identify Activators of 5'UTR Stem-Loop Driven Prion Protein mRNA Translation in H4-C Neuroglioblastoma Cells. [Related pubchem assays: 1829 (Project Summary), 1814 (Primary HTS)]; assay type: functional
[6] = Luminescence Cell-Based Dose Response to Identify Activators of Luciferase Translation or Activity in H4-C Neuroglioblastoma Cells. [Related pubchem assays: 1829 (Project Summary), 1814 (Primary HTS)]; assay type: functional
[7] = Luminescence Cell-Based Dose Confirmation to Identify Activators of 5'UTR Stem-Loop Driven Alpha-Synuclein mRNA Translation in H4 Neuroglioblastoma Cells. [Related pubchem assays: 1829 (Project Summary), 1814 (Primary HTS)]; assay type: functional
[8] = toxicity toward HepG2 liver cells – cell-based, plate reader, cherry-pick, antagonist series, cytotoxicity control, dose response (AID 743416); assay type: functional
BJ [9] = experiment: BJ-TERT-LT-ST fibroblast viability loss – cell-based, RAS-independent, luminescence, dose response (AID 1935); assay type: functional; details: Homo sapiens;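 also: BJ fibroblasts immortalized with TERT plus LT and ST oncogenes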
BJ [10] = experiment: BJ-TERT fibroblast viability loss – cell-based, RAS-independent, luminescence, dose response (AID 1933); assay type: functional; details: Homo sapiens
[11] = blockers of bursicon-stimulated LGR2 cAMP reporter – cell-based, HEK293, CRE-luciferase reporter, cherry pick, set 2, dose response (AID 743343); assay type: functional;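 also: transfected cells were stimulated with diluted bursicon conditioned medium after compound addition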
[12] = viability loss in HEK293 cells – cell-based, plate reader, cherry-picked samples, cytotoxicity control, dose response (AID 743446); assay type: functional
[13] = target: Luciferin 4-monooxygenase (Photinus pyralis, UniProt P08659); experiment: inhibition of purified Photinus pyralis luciferase – biochemical, luminescence, dose response (AID 1891)
[14] = Luminescence Cell-Based Dose Confirmation HTS to Identify Inhibitors of Platelet Dense Granule Release. [Related pubchem assays: 1663 (Primary HTS), 1678 (Summary of Project)]; assay type: functional
BJ [15] = experiment: cells; assay type: functional, cell-based; details: Homo sapiens
[16] = A549 cell cytotoxicity, dose response, cytotoxicity control, plate reader, cherry-pick, antagonist series (AID 743412); assay type: functional, cell-based
[17] = blockade of melanocortin 4 receptor signaling – cell-based, plate reader, cherry pick, counter-screen for LGR2 antagonist project, dose response (AID 743444); assay type: functional;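 also: transfected HEK 293 cells stimulated with alpha-MSH peptide; potency of inhibitors of the alpha-MSH evoked signal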
[18] = DRD fibroblast viability loss – cell-based, non-viral oncogenic, luminescence, dose response (AID 1934); assay type: functional; details: Homo sapiens
Protein skinhead-1 = target: T4, Protein skinhead-1 (Caenorhabditis elegans, UniProt P34707); assay type: functional
T4 sequence (P34707 whole entry): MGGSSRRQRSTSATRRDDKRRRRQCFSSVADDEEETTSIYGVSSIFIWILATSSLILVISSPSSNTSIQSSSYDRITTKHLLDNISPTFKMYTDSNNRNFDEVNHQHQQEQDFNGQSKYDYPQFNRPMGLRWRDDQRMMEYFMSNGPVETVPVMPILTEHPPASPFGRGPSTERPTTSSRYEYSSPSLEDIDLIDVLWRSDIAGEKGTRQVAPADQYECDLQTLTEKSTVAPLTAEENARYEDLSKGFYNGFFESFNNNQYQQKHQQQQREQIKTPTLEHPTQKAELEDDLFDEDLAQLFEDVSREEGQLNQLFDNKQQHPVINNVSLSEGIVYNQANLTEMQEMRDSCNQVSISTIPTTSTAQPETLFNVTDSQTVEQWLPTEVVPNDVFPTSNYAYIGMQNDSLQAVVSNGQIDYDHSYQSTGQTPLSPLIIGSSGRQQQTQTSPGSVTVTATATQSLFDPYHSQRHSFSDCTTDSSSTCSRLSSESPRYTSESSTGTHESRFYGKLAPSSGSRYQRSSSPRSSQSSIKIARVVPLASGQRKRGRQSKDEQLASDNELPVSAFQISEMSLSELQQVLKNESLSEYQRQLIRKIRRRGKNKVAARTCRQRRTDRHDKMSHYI

[19] = target: T5, Small ubiquitin-related modifier 1 (Homo sapiens, UniProt P63165); experiment: SUMO1 protein-protein binding blockers, potency – biochemical, FRET, dose response (AID 624383); assay type: functional; details: read-out: IC50_Mean
[20] = target: T5, Small ubiquitin-related modifier 1; experiment: SUMO1 protein interaction blockers, potency – biochemical, fluorescence polarization, uHTS hits, dose response (AID 624382); assay type: functional; details: read-out: IC50_Mean
cells = assay type: functional, cell-based; details: HEK-CNG
Galanin receptor type 3 = target: T6, Galanin receptor type 3 (Homo sapiens, UniProt O60755); experiment: Fluorescence-based cell-based primary high throughput dose response assay to identify antagonists of the Galanin Receptor 3 (GalR3).; assay type: functional
T6 sequence (O60755 whole entry): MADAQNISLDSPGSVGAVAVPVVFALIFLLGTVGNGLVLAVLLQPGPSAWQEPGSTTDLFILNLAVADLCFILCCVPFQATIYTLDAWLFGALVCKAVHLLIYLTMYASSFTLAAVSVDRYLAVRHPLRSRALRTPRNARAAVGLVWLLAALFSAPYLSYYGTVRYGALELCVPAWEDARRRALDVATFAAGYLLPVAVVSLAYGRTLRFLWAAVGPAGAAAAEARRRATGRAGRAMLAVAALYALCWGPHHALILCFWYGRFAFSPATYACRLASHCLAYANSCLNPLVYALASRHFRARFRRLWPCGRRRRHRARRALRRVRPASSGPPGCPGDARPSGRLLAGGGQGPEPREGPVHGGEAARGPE

T5 sequence (P63165 whole entry): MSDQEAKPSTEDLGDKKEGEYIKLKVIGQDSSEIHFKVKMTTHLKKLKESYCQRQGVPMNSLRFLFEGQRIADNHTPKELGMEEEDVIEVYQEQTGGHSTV
Sequence of Dual specificity protein phosphatase 3 (P51452 whole entry): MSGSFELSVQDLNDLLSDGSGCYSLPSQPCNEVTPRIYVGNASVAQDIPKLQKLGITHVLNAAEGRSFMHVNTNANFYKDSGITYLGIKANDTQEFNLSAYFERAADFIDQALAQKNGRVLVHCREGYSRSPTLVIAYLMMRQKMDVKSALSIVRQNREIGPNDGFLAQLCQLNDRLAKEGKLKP
Sequence of Luciferin 4-monooxygenase (P08659 whole entry): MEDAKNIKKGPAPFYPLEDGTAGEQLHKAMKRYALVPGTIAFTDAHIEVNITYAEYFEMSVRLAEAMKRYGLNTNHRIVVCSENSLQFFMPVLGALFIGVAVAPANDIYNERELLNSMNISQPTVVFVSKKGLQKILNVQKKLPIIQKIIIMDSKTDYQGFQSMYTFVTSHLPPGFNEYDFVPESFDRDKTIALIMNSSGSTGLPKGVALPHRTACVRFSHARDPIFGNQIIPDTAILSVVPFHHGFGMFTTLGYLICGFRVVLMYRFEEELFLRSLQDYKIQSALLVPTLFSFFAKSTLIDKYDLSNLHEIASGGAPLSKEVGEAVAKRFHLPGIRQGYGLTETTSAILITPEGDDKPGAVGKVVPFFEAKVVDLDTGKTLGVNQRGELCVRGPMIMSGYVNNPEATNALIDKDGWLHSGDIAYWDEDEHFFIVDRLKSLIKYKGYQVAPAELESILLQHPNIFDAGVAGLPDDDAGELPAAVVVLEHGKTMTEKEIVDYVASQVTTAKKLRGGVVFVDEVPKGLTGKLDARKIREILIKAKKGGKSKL

**Q.** With `CCOC(=O)N1CCC(N(CCN(C)C)C(=S)Nc2cc(Cl)ccc2C)CC1` as the molecule, how does the IC50 [1] read?
**A.** The IC50 was 2.14 µM (active).

**Q.** What about the IC50 [2] of the same molecule?
**A.** The IC50 was 32.2 µM (inactive).

**Q.** What about the IC50 [3] of the same molecule?
**A.** The IC50 was 11.8 µM (active).

**Q.** With `COc1ccc2cc(C3C(C#N)=C(N)OC(C)=C3C(C)=O)c(Cl)nc2c1` (stereo not given) as the molecule, how does the IC50 (Protein Tat) read?
**A.** Its IC50 is > 100 µM (active).

**Q.** Which results are given for `CC(=O)c1cnc2cc(-c3ccc(C)cc3)nn2c1C`?
**A.** EC50 [4]: < 0.1 µM (active); EC50 [5]: 0.223 µM (active); EC50 [6]: 0.319 µM (active); EC50 [7]: 0.297 µM (active)

**Q.** For `CCCSc1ccc2nc(-c3ccccc3)cn2c1`, which AC50 [8] is on record?
**A.** Its AC50 is 20.7 µM (active).

**Q.** And the EC50 (BJ [9])?
**A.** The EC50 was > 150 µM (not active).

**Q.** What about the EC50 (BJ [10]) of the same molecule?
**A.** Its EC50 is 22.8 µM (active).

**Q.** And the AC50 [11]?
**A.** The AC50 was 0.951 µM (active).

**Q.** What about the AC50 [12] of the same molecule?
**A.** Its AC50 is 39.5 µM (active).

**Q.** What about the EC50 [13] of the same molecule?
**A.** Its EC50 is 0.709 µM (active).

**Q.** And the EC50 [14]?
**A.** The EC50 was 2.14 µM (active).

**Q.** What about the EC50 (BJ [15]) of the same molecule?
**A.** Its EC50 is 19.6 µM (active).

**Q.** And the AC50 [16]?
**A.** Its AC50 is 39.3 µM (active).

**Q.** What about the AC50 [17] of the same molecule?
**A.** The AC50 was 1.2 µM (active).

**Q.** What about the EC50 [18] of the same molecule?
**A.** The EC50 was 20.9 µM (active).

**Q.** And the IC50 (Protein skinhead-1)?
**A.** Its IC50 is > 100 µM (inactive).

**Q.** Which IC50 [19] does the source give for `Cc1ccc(S(=O)(=O)N2[C@@H](c3ccc(C(C)(C)C)cc3)C(C(=O)O)=CC[C@H]2c2ccc(Cl)c(Cl)c2)cc1` here?
**A.** Its IC50 is 18.8 µM (active).

**Q.** What about the IC50 [20] of the same molecule?
**A.** The IC50 was > 66.6 µM (inactive).

**Q.** Which EC50 (cells) does the source give for `Cc1cc(NC(=O)Cc2ccccc2)c2ccccc2n1` here?
**A.** The EC50 was > 29.9 µM (inactive).

**Q.** What about the IC50 (Galanin receptor type 3) of the same molecule?
**A.** The IC50 was 1.3 µM (active).

**Q.** With `CCN1CCN(C(=O)CN(C)S(=O)(=O)c2ccc(OC)c(C)c2)CC1` as the molecule, how does the IC50 (Protein Tat) read?
**A.** The IC50 was > 100 µM (active).

Source: ChEMBL document CHEMBL1201862, “PubChem BioAssay data set” (2004)
